Measurements: patent US4148795A, “Dithiocarbamate ester bactericides and fungicides” (American Cyanamid Company, priority 1976, dated 1979)
Several values for one entry are separate records, joined by “and”; a condition that tells them apart may be missing. Equal values may be shown once. Read-outs that look alike come from different tables or passages of the source.

Assays:
Piricularia oryzae = type: in vivo; set-up: scale not given here; conditions: Rice Blast, five days
Xanthomonas vesicatoria = type: cell-based; conditions: 100 ppm; subcultures 72 hours at 37° C; further: key: 0: No Effect; 9: Kill of Bacteria; 5: Stasis, but not Kill of all Bacteria
Verticillium albo-atrum = experiment: Agar dilution plate; type: cell-based; conditions: Va; 100 ppm, 72 hours at 23° C
Procedure: (§1) Test compounds were incorporated in a Sabouraud's dextrose agar in an amount sufficient to provide the active ingredient in a concentration of about 100 ppm. A twenty-ml. sample of the agar mixture is placed in a petri dish and permitted to solidify. An agar sample is inoculated with the test organism set forth below and then covered and incubated for a period of about 72 hours at 23° C. After incubation, growth observations are made. The test results are recorded and the test is repeated twice for the purpose of comparison.
(§2) The data obtained with a variety of test organisms is shown in the table below, and ratings are shown as 0 or 5. O indicates no control, 5 indicates 100% effectiveness of the test compound against the specified organism.
Va= Verticillium albo-atrum

Pseudomonas solaracaerum = type: cell-based; conditions: 100 ppm, 72 hours at 23° C
Aerobacter aerogenes = type: cell-based; conditions: 100 ppm; subcultures 72 hours at 37° C; further: key: 0: No Effect; 9: Kill of Bacteria; 5: Stasis, but not Kill of all Bacteria
Phytophthora infestans = type: in vivo; set-up: scale not given here; conditions: Tomato Late Blight, five days
Venturia inaequalis = conditions: in vivo; further: key: 5: clean, no disease; 4: trace of disease; 3: slight disease; 2: moderate disease; 1: severe disease; 0: like controls
Aspergillus niger [1] = experiment: Spore germination inhibition; type: cell-based; conditions: 24 hours
From the text: (§3) The test procedure involves the preparation of a 100, 10 or 1 ppm. suspension of test compound in water. The solutions are placed in one dram "opticlear" vials and separately inoculated with one drop of a spore suspension prepared from seven-day cultures of Aspergillus niger and 14-day old cultures of Monilinia fructicola and Stemphylium sarcinaeforme,all grown on potato-dextrose agar. The vials containing the separately inoculated solutions of test compounds are then capped and placed on a rotating tumbler for 24 hours to assure contact of the organism with the test compound. After 24 hours, the vials are removed and examined for inhibition of […].

[2] = system: Stemphylium sarcinaeforme; experiment: Spore germination inhibition; type: cell-based; conditions: Stemphylium sarciniforme; for inhibition at 100 ppm: 24 h, read-out: % Inhibition of Spore Germination; for inhibition at 1 ppm / inhibition at 10 ppm: 24 hours
From the text: as §3

Monilinia fructicola [3] = experiment: Spore germination inhibition; type: cell-based; conditions: for inhibition at 1 ppm / inhibition at 10 ppm: 24 hours; for inhibition at 100 ppm: 24 h, read-out: % Inhibition of Spore Germination
From the text: as §3

Rhizoctonia solani = experiment: Agar dilution plate; type: cell-based; conditions: Rs; 100 ppm, 72 hours at 23° C
Procedure: as §1, §2

Aspergillus niger [4] = experiment: Agar dilution plate; type: cell-based; conditions: An; 100 ppm, 72 hours at 23° C
Procedure: as §1, §2

Fusarium lycopersici = experiment: Agar dilution plate; type: cell-based; conditions: Fl; 100 ppm, 72 hours at 23° C
Procedure: as §1, §2

Pythium de Baryanum = experiment: Agar dilution plate; type: cell-based; conditions: Pd; 100 ppm, 72 hours at 23° C
Procedure: as §1, §2

Monilinia fructicola [5] = experiment: Agar dilution plate; type: cell-based; conditions: Mf; 100 ppm, 72 hours at 23° C
Procedure: as §1, §2

Staphylococcus aureus = type: cell-based; conditions: 100 ppm; subcultures 72 hours at 37° C; further: key: 0: No Effect; 9: Kill of Bacteria; 5: Stasis, but not Kill of all Bacteria
[6] = system: Collectotrichum lagenarium; experiment: Agar dilution plate; type: cell-based; conditions: Cl; 100 ppm, 72 hours at 23° C
Procedure: as §1, §2
Cl= Collectotrichum lagenarium

[7] = system: Stemphylium sarcinaeforme; experiment: Agar dilution plate; type: cell-based; conditions: Ss; 100 ppm, 72 hours at 23° C
Procedure: as §1, §2
Ss= Stemphylium sarcinaeforme

[8] = system: Colletotrichum lagenarium; conditions: in vivo; further: key: 5: clean, no disease; 4: trace of disease; 3: slight disease; 2: moderate disease; 1: severe disease; 0: like controls

SMILES | disease control index (Piricularia oryzae; 150 ppm) | disease control index (Piricularia oryzae; 300 ppm) | Antibacterial Activity rating (Xanthomonas vesicatoria) | Agar Dilution Plate rating (Verticillium albo-atrum) | Agar Dilution Plate rating (Pseudomonas solaracaerum) | Antibacterial Activity rating (Aerobacter aerogenes) | disease control index (Phytophthora infestans; 150 ppm) | disease control index (Phytophthora infestans; 300 ppm) | disease control index (Venturia inaequalis) | inhibition at 1 ppm (Aspergillus niger [1]) [%] | inhibition at 10 ppm (Aspergillus niger [1]) [%] | inhibition at 100 ppm (Aspergillus niger [1]) [%] | inhibition at 100 ppm [2] [%] | inhibition at 1 ppm [2] [%] | inhibition at 10 ppm [2] [%] | inhibition at 1 ppm (Monilinia fructicola [3]) [%] | inhibition at 10 ppm (Monilinia fructicola [3]) [%] | inhibition at 100 ppm (Monilinia fructicola [3]) [%] | Agar Dilution Plate rating (Rhizoctonia solani) | Agar Dilution Plate rating (Aspergillus niger [4]) | also measured
CN(C)C(=S)SCC(CSC(=S)N(C)C)[N+](=O)[O-] [Example 1, 2-Nitrotrimethylene Dimethyldithiocarbamate] | 2 | 2 | 0 | 0 | 0 | 0 | 3 | 4 | 3 and 0 | 100 | 100 | 100 | 100 | 100 | 100 | 100 | 100 | 100 | 0 | 0 | disease control index (Piricularia oryzae; 600 ppm): 3; disease control index (Piricularia oryzae; 1200 ppm): 3; disease control index (Phytophthora infestans; 600 ppm): 4; disease control index (Phytophthora infestans; 1200 ppm): 5; Agar Dilution Plate rating (Fusarium lycopersici): 0; Agar Dilution Plate rating (Pythium de Baryanum): 0; Agar Dilution Plate rating (Monilinia fructicola [5]): 5 (100% effectiveness of the test compound against the specified organism); Antibacterial Activity rating (Staphylococcus aureus): 5; Agar Dilution Plate rating [6]: 5 (100% effectiveness of the test compound against the specified organism); Agar Dilution Plate rating [7]: 5 (100% effectiveness of the test compound against the specified organism)
O=[N+]([O-])CC(SC(=S)N1CCCC1)c1ccccc1 (stereo not drawn) [Example 15, α-(Nitromethyl)benzyl 1-pyrrolidinecarbodithioate] | 4 | 4 |  |  |  |  |  |  |  |  |  |  |  |  |  |  |  |  |  |  | disease control index [8]: 5
COc1ccc(C(C[N+](=O)[O-])SC(=S)N(C)C)cc1OC (stereo not drawn) [Example 25, 3,4-Dimethoxy-α-(nitromethyl)benzyl Dimethyldithiocarbamate] | 3 | 4 | 5 | 5 (100% effectiveness of the test compound against the specified organism) | 0 | 5 | 5 | 5 | 5 | 0 | 100 | 100 | 100 | 100 | 100 | 0 | 100 | 100 | 0 | 0 | disease control index (Piricularia oryzae; 600 ppm): 5; disease control index (Piricularia oryzae; 1200 ppm): 4; disease control index (Phytophthora infestans; 600 ppm): 5; disease control index (Phytophthora infestans; 1200 ppm): 5; Agar Dilution Plate rating (Fusarium lycopersici): 0; Agar Dilution Plate rating (Pythium de Baryanum): 5 (100% effectiveness of the test compound against the specified organism); Agar Dilution Plate rating (Monilinia fructicola [5]): 5 (100% effectiveness of the test compound against the specified organism); Antibacterial Activity rating (Staphylococcus aureus): 5; Agar Dilution Plate rating [6]: 5 (100% effectiveness of the test compound against the specified organism); Agar Dilution Plate rating [7]: 5 (100% effectiveness of the test compound against the specified organism)
CN(C)C(=S)SC(C[N+](=O)[O-])c1ccccc1Cl (stereo not drawn) [Example 27, o-Chloro-α-(nitromethyl)benzyl Dimethyldithiocarbamate] | 2 | 4 | 5 | 5 (100% effectiveness of the test compound against the specified organism) | 0 | 9 | 2 | 2 | 5 and 0 | 0 | 100 | 100 | 100 | 100 | 100 | 0 | 100 | 100 | 0 | 0 | disease control index (Piricularia oryzae; 600 ppm): 4; disease control index (Piricularia oryzae; 1200 ppm): 4; disease control index (Phytophthora infestans; 600 ppm): 4; disease control index (Phytophthora infestans; 1200 ppm): 4; Agar Dilution Plate rating (Fusarium lycopersici): 5 (100% effectiveness of the test compound against the specified organism); Agar Dilution Plate rating (Pythium de Baryanum): 5 (100% effectiveness of the test compound against the specified organism); Agar Dilution Plate rating (Monilinia fructicola [5]): 5 (100% effectiveness of the test compound against the specified organism); Antibacterial Activity rating (Staphylococcus aureus): 5; Agar Dilution Plate rating [6]: 5 (100% effectiveness of the test compound against the specified organism); Agar Dilution Plate rating [7]: 5 (100% effectiveness of the test compound against the specified organism)
CN(C)C(=S)SC(C[N+](=O)[O-])c1ccc(Br)cc1 (stereo not drawn) [Example 30, p-Bromo-α-(nitromethyl)benzyl Dimethyldithiocarbamate] | 5 | 5 | 0 | 0 | 0 | 0 | 2 | 3 | 5 | 0 | 100 | 100 | 100 | 0 | 100 | 100 | 100 | 100 | 5 (100% effectiveness of the test compound against the specified organism) | 0 | disease control index (Piricularia oryzae; 600 ppm): 5; disease control index (Piricularia oryzae; 1200 ppm): 5; disease control index (Phytophthora infestans; 600 ppm): 3; disease control index (Phytophthora infestans; 1200 ppm): 4; Agar Dilution Plate rating (Fusarium lycopersici): 0; Agar Dilution Plate rating (Pythium de Baryanum): 5 (100% effectiveness of the test compound against the specified organism); Agar Dilution Plate rating (Monilinia fructicola [5]): 5 (100% effectiveness of the test compound against the specified organism); Antibacterial Activity rating (Staphylococcus aureus): 5; Agar Dilution Plate rating [6]: 5 (100% effectiveness of the test compound against the specified organism); Agar Dilution Plate rating [7]: 0
CN(C)C(=S)SC(C[N+](=O)[O-])c1cccs1 (stereo not drawn) [Example 33, α-(Nitromethyl)-2-thenyl Dimethyldithiocarbamate] | 5 | 5 | 0 | 0 | 0 | 0 | 5 | 5 | 5 | 0 | 100 | 100 | 100 | 100 | 100 | 100 | 100 | 100 | 0 | 0 | Agar Dilution Plate rating (Fusarium lycopersici): 0; Agar Dilution Plate rating (Pythium de Baryanum): 0; Agar Dilution Plate rating (Monilinia fructicola [5]): 5 (100% effectiveness of the test compound against the specified organism); Antibacterial Activity rating (Staphylococcus aureus): 5; Agar Dilution Plate rating [6]: 5 (100% effectiveness of the test compound against the specified organism); Agar Dilution Plate rating [7]: 5 (100% effectiveness of the test compound against the specified organism)
